Data on 1 compound can be found in patent publication US20210308120A1, “Use of Amitriptyline for Blocking Brain Hemichannels and Method for Potentiating its Effect in Vivo” (THERANEXUS, priority 2015, published 2021).

Each structure is given as a SMILES string.

Holding throughout (format): in vivo, mouse
In data set [1] the test system is neuropathic mice (cuff model, allodynia). Kind of data set: Mechanical allodynia, von Frey test in sciatic nerve cuff model. As to the method: Paw withdrawal thresholds of mice treated with either amitriptyline 6 mg/kg alone (AMIT 6) or amitriptyline 12 mg/kg alone (AMIT 12) are also shown (D). FIG. 10 (E) represents area under curve analysis.
Area under curve analysis are shown (B).
Neuropathic pain was induced to adult male C57BL/6J mice (Charles River, L'Arbresle, France) by cuffing the main branch of the right sciatic nerve (For detailed description and video illustration: Yalcin et al. 2014, J Vis Exp 89:e51608). Surgeries were performed under ketamine (68 mg/kg)/xylazine (10 mg/kg) intraperitoneal (i.p.) anesthesia (Centravet, Tadden, France). The common branch of the right sciatic nerve was exposed and a cuff of PE-20 polyethylene tubing (Harvard Apparatus, Les Ulis, France) of standardized length (2 mm) was unilaterally inserted around it (Cuff group). The shaved skin was closed using suture.
Injections were done once a day during the 17 first days of treatment, in the afternoon. As a single dose per day was ineffective, treatment was then done twice a day, morning and afternoon, from the 8 last days of treatment.
Mechanical allodynia was tested using von Frey hairs and results were expressed in grams (For detailed description and video illustration: Yalcin et al. 2014, J Vis Exp 89:e51608). Tests were done during the morning, starting at least 2 hours after lights on. Mice were placed in clear Plexiglas boxes (7 cm×9 cm×7 cm) on an elevated mesh screen. Calibrated von Frey filaments (Bioseb, Vitrolles, France) were applied to the plantar surface of each hindpaw until they just bent, in a series of ascending forces up to the mechanical threshold. Filaments were tested five times per paw and the paw withdrawal threshold was defined as the lower of two consecutive filaments for which three or more withdrawals out of the five trials were observed.
Mice were subjected to sciatic nerve cuffing and then tested with the von Frey test to evaluate allodynia quantified as pressure threshold.
Mice were subjected to sciatic nerve cuffing and then tested with the von Frey test to evaluate allodynia quantified as pressure threshold. Neuropathic mice, characterized by a decrease of pressure threshold after surgery, were then treated during 25 days and tested by the von Frey test during this period.

The nature of data set [2]: Pharmacokinetics of amitriptyline/mefloquine in plasma and brain of mice (LC-MS). To be noted: amitriptyline 6, 12 mg/kg, mefloquine 0.1, 0.3, 1 mg/kg i.p., 18 days, 2 hours after injection. On the procedure: Data are presented as mean±SEM.
Adult male C57BL/6J mice (Charles River, L'Arbresle, France) were used. Mice were kept in collective cages for habituation to the facility for one week before experimental testing with food and water ad libitum. Mice were maintained on a light/dark cycle of 12 hours with light onset at 8h00 and with a controlled temperature of 21° C.±1° C.
Injections were done twice.
On day 18th of treatment, mice received the morning injection and samplings were done 2 hours after the injection. Mice were anesthetized just before sampling (ketamine 68 mg/kg, xylazine 10 mg/kg) and blood was collected by intracardiac puncture (Vacuette tubes, with lithium/heparin gel). The mouse was then decapitated, and the brain extracted and fast frozen in dry ice.
Vacuette tubes with blood were centrifugated (3000 rpm, 20 min), plasma recovered and stored at −80° C. until shipping in dry ice.

Data set [3] concerns LPS-injected mice (neuro-inflammation). The data set is described as follows: LPS-induced model of neuro-inflammation (coat state score, weight loss). To be noted: amitriptyline 1 mg/kg ± mefloquine 1 mg/kg. From the text:
FIG. 13 represents the coat state scores evaluated three hours after treatment in a LPS-induced model of neuro-inflammation (left graph). The right graph represents the amount of weight loss between three hours of treatment and just before treatment in a LPS-induced model of neuro-inflammation (right graph). Control mice were ip injected with saline solution. […] In both graphs: n=4-6 mice per group, data are presented as means±SEM and compared with a One-way ANOVA followed by Tukey's post-hoc test, *p<0.05, […] versus CONTROL-treated mice.
Adult Swiss male mice were used in the LPS model. Mice were kept in collective cages for habituation to the facility for one week before experimental testing. Afterwards, they were housed in individual cages two days before the experiment started with food and water ad libitum. Mice were maintained on a light/dark cycle of 12 hours with light onset at 8h00 and with a controlled temperature of 21° C.±1° C. […]
Coat state score was evaluated three hours after treatment. […] The cleanness fur state was evaluated for each of these five body parts. […]
General physiological state of the animals was assessed by the normalised weight loss; defined as the difference between weight measures three hours after treatment (T0+24 h) and just before treatment (T0+21 h).

As to `CN(C)CCC=C1c2ccccc2CCc2ccccc21` [amitriptyline, 3-(5,6-dihydrodibenzo[2,1-b:2′,1′-f][7]annulen-11-ylidene)-N,N-dimethylpropan-1-amine], the “Paw withdrawal threshold (von Frey)” value is reported as “no changes of paw withdrawal” in data set [1] (amitriptyline 6 mg/kg i.p. chronic, alone) and “significant increase of the paw withdrawal threshold from day 32 to day 34” in data set [1] (amitriptyline 12 mg/kg i.p. chronic, in comparison with amitriptyline 6 mg/kg). Besides, the “Effective equivalent dose of amitriptyline when administered in combination with mefloquine” value in data set [1] (relative to active dose of amitriptyline alone) is “about 0.5”. Also, the “Concentrations in blood and brain tissue” value in data set [2] is “dose-dependent”. The Weight loss entry in data set [3] (between just before and three hours after oral treatment) was “induces a decrease in weight loss”. For the same compound, the “Coat state score (grooming activity)” value in data set [3] (three hours after oral treatment, LPS 0.33 mg/kg i.p.) is recorded as “tendency to reduce the deterioration of coat state”.
